Results published in patent US11420922B2, “Hydroxylated tropolone inhibitors of nucleotidyl transferases in herpesvirus and Hepatitis B and uses therefor” (Saint Louis University, priority 2015, dated 2022).
“Also recorded” adds a separate entry of the source. Like-named read-outs stand apart in the source and are kept apart here.

What was measured:
HSV-2 = assay: Anti-HSV-2 replication assay in Vero cells, titers by plaque assay; type: cell-based, herpes simplex virus 2; conditions: for log reduction at 5 µM / log reduction at 50 µM / EC50: Human alphaherpesvirus 2, Vero, 24 h; for log reduction at 5 µM: read-out: HSV-2 Log suppression 5 μM; for log reduction at 50 µM: read-out: HSV-2 Log suppression 50 μM; for inhibition of wild-type HSV-2, in words: laboratory strain, 24 hr, FIG. 4; for EC50: read-out: HSV-2 EC50
[1] = tested on: TK-deficient mutant of HSV-2 strain 333, ΔTK-; assay: Replication of acyclovir-resistant TK-deficient HSV-2 mutant in Vero cells; type: cell-based, herpes simplex virus 2; conditions: 5 μM, 24 hr, FIG. 4
Experimental: FIGS. 4A & 4B. Sensitivity of thymidine kinase-deficient HSV-2 to αHT compounds. […] Duplicate cultures were collected 24 hours post-infection and infectious virus titers were determined by plaque assay. Titers in compound-treated samples were subtracted from DMSO-treated samples. Values are the averages±one standard error of the mean. α-Hydroxytropolones inhibit an ACV-resistant mutant of HSV-2. […] Log10 suppression was determined relative to the diluent control. Data are the averages of data from duplicate samples±ranges from one of two independent experiments at each concentration.
(§1) Vero cells were maintained in Dulbecco's modified Eagle's medium (DMEM) containing 3% newborn calf serum, 3% bovine growth serum, 2 mM L-glutamine and 100 IU/mL penicillin and 0.1 mg/mL streptomycin (P/S). HSV-1 #6 and HSV-2 #1 are de-identified clinical isolates from the Saint Louis University Hospital. Stocks were prepared after a single passage in cell culture and were titered by standard plaque assay (Knipe and Spang, 1982). Wild-type HSV-2 used in FIG. 3 was laboratory strain 333. The TK-deficient mutant of HSV-2 strain 333, ΔTK-, contains a 180-bp KpnI-KpnI deletion in the UL23 open reading frame that abrogates TK activity (McDermott, et al, 1984). ΔTK- was the generous gift of Jim Smiley. Virus stocks were grown and titered on Vero cells (Morrison and Knipe, 1996).
HSV TK-deficient mutants are therefore insensitive to ACV. […] Vero cells were infected with a laboratory strain of HSV-2 and an engineered TK-deficient mutant of the same strain.

HSV-1 = assay: Anti-HSV-1 replication assay in Vero cells, titers by plaque assay; type: cell-based, herpes simplex virus 1; conditions: Human alphaherpesvirus 1, Vero; for log reduction at 5 µM / log reduction at 50 µM / EC50: 24 h; for log reduction at 5 µM: read-out: HSV-1 Log suppression 5 μM; for log reduction at 50 µM: read-out: HSV-1 Log suppression 50 μM; for EC50: read-out: HSV-1 EC50
Experimental: as §1, with “The TK-deficient mutant of HSV-2 strain 333, ΔTK-, contains a 180-bp KpnI-KpnI deletion in the UL23 open reading frame that abrogates TK activity (McDermott, et al, 1984). ΔTK- was the generous gift of Jim Smiley.” left out
(§2) Compounds to be screened were diluted in PBS supplemented to contain 2% newborn calf serum and 1% glutamine, and added in 100 μL volume to confluent cell monolayers in 24-well cluster plates. Immediately thereafter HSV-1 and HSV-2, diluted in the supplemented PBS medium, were added to the wells in 50 μl volume such that the final concentration of compound was 50 μM and 5 μM and the multiplicity of infection was 0.1. The plates were incubated at 37° C. for 1 hour and then virus-containing inoculum was removed and the wells were washed once in PBS. Compounds, diluted to 50 μM and 5 μM in DMEM supplemented to contain 2% newborn calf serum and 1% each penicillin/streptomycin, were added at 0.5 mL/well. Plates were incubated at 37° C. an additional 23 hr, and then the plates were visually inspected through a phase contrast microscope for cytopathic effect, and for toxic effect. […] The entire contents of each well were collected by scraping. Samples were frozen at −80° C., and then subsequently thawed, sonicated, and infectious virus titer was determined by standard plaque assay on Vero cell monolayers. Because the compounds were dissolved at 10 mM in 100% DMSO, equivalent dilutions of DMSO were added to additional wells as a control for effects of the diluent. Each experiment was repeated once. EC50 values were determined as above except that serial dilutions of the compound to be tested were prepared starting at 50 μM. The inhibitory values were calculated by non-linear curve-fitting in GraphPad Prism.

[2] = Quantitative Vero cell toxicity (MTT); type: cell-based; conditions: African green monkey, Vero cells
Experimental: (§3) Qualitative assessments of cytotoxicity were done visually by inspecting the cells in the primary screening assays. For the quantitative assays, cells were plated in 96-well plates at 1.0×10^4 per well. The next day the compounds were added at 0.78 to 100 μM in a final concentration of 1% (v/v) DMSO, and the cells were incubated for 24 hours under conditions identical to those employed for the viral replication inhibition assays. Mitochondrial toxicity was measured by incubating the cells with 0.25 mg/mL thiazolyl blue tetrazolium bromide (MTT, Sigma Aldrich Chemical Co.), the cultures were incubated for 60 min, metabolites were solubilized in acidic isopropanol, and absorbance was read at 570 nm. CC50 values were calculated by non-linear curve fitting using GraphPad Prism.
Quantitative toxicity measurements were conducted for all compounds that suppressed HSV replication by >2 log10 at 5 μM plus a number of compounds with lesser inhibitory activity for comparison. Toxicity was assessed by […]. Cells were plated in 96-well plates at 1.0×10^4 per well. The next day compound was added in concentrations ranging from 0.78 to 100 μM in a final concentration of 1% (v/v) DMSO. The cells were incubated for 24 h under conditions identical to those employed for the viral replication inhibition assays, and then mitochondrial activity was measured with the MTT assay (Sigma Aldrich) according to the manufacturer's instructions. Percent viability was determined for each compound concentration from the […], and then 50% cytotoxic concentrations (CC50) values were calculated by non-linear curve fitting using GraphPad Prism. Consistent with the subjective assessments of toxicity, all compounds selected for quantitative toxicity assessment had CC50 values≥50 μM under these conditions (Table 1).

HBV replication = assay: Chou-Talalay combination of RNAseH inhibitors with Lamivudine against HBV replication; type: cell-based, Hepatitis B virus; conditions: CI <1.0 synergy, ~1.0 additive, >1.0 antagonism
Source text: Additive interactions are shown with the red line, synergistic interactions below the line, and antagonistic interactions are above the line.
Current nucleos(t)ide analog therapy for HBV has converted hepatitis type B from an implacably progressing illness to a controllable disease. However, patients are only very rarely cured, in part due to the incomplete inhibition of HBV replication. The inventors hypothesized that the novel RNaseH inhibitors would work synergistically with the existing nucleos(t)ide analogs because the two classes of drugs target physically distinct active sites on the viral polymerase protein. […] RNAseH inhibitors from two different chemical classes were employed, compound #1 [2-hydroxyisoquinoline-1,3(2H,4H)-dione], an HID, and #46 (β-thujaplicinol), an α-hydroxytropolone, were tested. Chou-Talaly analysis yields a combination index (CI). CI values<1.0 indicate synergy, CIs of approximately 1.0 indicate additive interactions, and CI values>1.0 indicate antagonism. CI values are calculated at various efficacy levels (EC50, EC75, EC90, and EC95), and a weighted CI value favoring higher efficacy levels is also generated. FIGS. 6A & 6B show the results of four experiments employing compound #1 and three with compound #46. […] Therefore, RNAseH inhibitors act strongly synergistically with an approved nucleos(t)ide analog drug against HBV.

[3] = tested on: patient-derived RNAseH enzymes (genotypes B, C and D); assay: Biochemical RNAseH assay with patient-derived variant enzymes; parameters: species or system Hepatitis B virus
Source text: Four variant patient-derived RNAseH enzymes were expressed as recombinant enzymes, purified, and tested in an RNAseH assay with compounds #1 (FIG. 7A) and #46 (FIG. 7B) at their respective IC50s.
HBV has at least 8 genotypes differing in sequence by 8%. Genetic diversity in the RNAseH domain is about 6%, which is easily high enough to modulate viral sensitivity to RNAseH inhibitors. Therefore, the inventors tested the RNAseH inhibitors #1 [2-hydroxyisoquinoline-1,3(2H,4H)-dione], an HID, and #46 (β-thujaplicinol), an α-hydroxytropolone, for the ability to inhibit variant RNAseHs. Twelve purified, patient-derived RNAseH enzymes (4 from each genotypes B, C and D) were tested with the compounds at their respective IC50 values in a biochemical RNAseH assay. […] Therefore, HBV's high genetic variation is unlikely to present a substantial barrier to drug development.

HSV = assay: Anti-HSV SAR summary, HSV type not separated; type: cell-based, herpes simplex virus; conditions: grouped by activity at 50, 5 and 0.5 μM
Experimental: as §2
A series of over 20 synthetic αHTs were synthesized and tested to both confirm the initial SAR, and to provide leads for further optimization pursuits (FIG. 5). […] Specifically, biphenyl-containing molecules #118 and 115 inhibit HSV replication by up to 4 log10 at 200 nM. The increased potency over close analogs #111 and 113 confirmed the importance of added lipophilicity.

[4] = Mouse liver microsome assay; type: in vitro ADME; conditions: 1 μM in mouse liver microsomes
Experimental: Microsomal incubations are run at a final P450 concentration of 0.25 μM. The microsomal mixture is composed of 0.1M potassium phosphate containing 3.3 mM MgCl and 1 μM compound (final concentration). The mixture is prewarmed for 5 min at 37° C. To initiate the reaction a 12 mM stock of NAPDH (1.2 mM, final concentration) is added to the warmed microsomal mixture and aliquots are removed at 0, 5, 10, 20 and 30 min. Samples are quenched with ice cold acetonitrile containing internal standard and either 1.8 mM EDTA or EGTA (final concentration). Samples are vortexed and spun down at 3200 rpm for 5 min. The supernant is transferred to 96-deep well plates and run on LC/MS/MS.

HBV = HBV replication assay in HepDES19 cells; type: cell-based; conditions: Hepatitis B virus; HepDES19 cells; read-out: EC50 (HBV assay)
Experimental: HBV replication assay. Inhibition of HBV replication was measured in HepDES19 cells as previously described (Cai, et al., 2014). Cells were seeded into 6-well plates and incubated in DMEM/F12, 10% fetal bovine serum (FBS), 1% penicillin/streptomycin (P/S) with 1 μg/ml tetracycline. Tetracycline was withdrawn after 24 hours. The test compound was applied to duplicate wells 48 hours later in medium containing a final DMSO concentration of 1%, and medium containing the compound was refreshed daily for the following two days. Cells were harvested and non-encapsidated nucleic acids were digested with micrococcal nuclease (New England Biolabs). HBV DNA was purified from capsids using QIAamp Cador Pathogen Mini Kit (Qiagen) with proteinase K incubation overnight at 37° C. TaqMan PCR was performed for 40 cycles at an annealing temperature of 60° C. Primers and probe (IDT Inc.) for the plus-polarity strand were: 5′[…]3′ (SEQ ID NO: 1); 5′[…]3′ (SEQ ID NO: 2); 5′/56-FAM/[…]/ZEN/[…]/3IABkFQ (SEQ ID NO: 3). Primers and probe for the minus-polarity strand were: 5′[…]3′ (SEQ ID NO: 4); 5′[…]3′ (SEQ ID NO: 5); 5′/56-FAM/[…]/ZEN/[…]/3IABkFQ (SEQ ID NO: 6).

[5] = Cytotoxicity reported with the HBV assay (Table 4); type: cell-based; conditions: human, hepatoma cells; read-out: CC50 (HBV assay table)
Experimental: as §3

[6] = 5 μM, moi 0.1, 24 h, vs DMSO, +/− are qualitative, key not given
[7] = 50 μM, moi 0.1, 24 h, vs DMSO, +/−/T are qualitative, key not given

| SMILES | inhibition of the TK-mutant strain, in words [1] | CC50 at 24 h [2] [nM] | inhibition of wild-type HSV-2, in words (HSV-2; 5 μM) | EC50 (HSV-2) [nM] | log reduction at 5 µM (HSV-2) | log reduction at 50 µM (HSV-2) | EC50 (HSV-1) [nM] | log reduction at 5 µM (HSV-1) | log reduction at 50 µM (HSV-1) | also measured |
| --- | --- | --- | --- | --- | --- | --- | --- | --- | --- | --- |
| Nc1nc2c(ncn2COCCO)c(=O)[nH]1 [ACV, Acyclovir, reference compound] | little effect | > 100000 |  |  |  |  |  |  |  | log reduction at 5 µM (HSV-2; [6]): 3.6; log reduction at 50 µM (HSV-2; [7]): 4.73; log reduction at 5 µM (HSV-1; [6]): 4.22; log reduction at 50 µM (HSV-1; [7]): 5.39 |
| O=C1Cc2ccccc2C(=O)N1O [Compound 1, 2-hydroxyisoquinoline-1,3(2H,4H)-dione] |  |  |  |  |  |  |  |  |  | weighted CI value (combination index) with Lamivudine (HBV replication): 0.70±0.1; inhibition of four genotype D RNAseH enzymes ([3]; compound at its IC50, FIGS. 7A & 7B): about 50%; inhibition of all 12 variant RNAseH enzymes, in words ([3]; compound at its IC50, genotypes B, C and D): Equivalent results |
| Cc1cc(O)c(=O)c(O)cc1-c1ccc(-c2ccccc2)cc1 [Compound 115] | efficiently inhibited | > 100000 | efficiently inhibited | 130 | 4.52 | 5.11 | 130 | 4.26 | 4.14 | anti-HSV SAR group, in words (HSV): highly inhibitory at much lower concentrations; also recorded: fully inhibitory at 0.5 μM; Non-P450 turn-over [4]: No; half-life at 1 μM ([4]; read-out: t ½): 18 min; ER ([4]; extraction ratio): 0.76; CLint scaled at 1 μM ([4]; mouse, liver microsomes): 285 mL/min/kg; predicted hepatic clearance at 1 μM ([4]; mouse, liver microsomes, read-out: CL ′hep): 68 mL/min/kg |
| COC(=O)c1c(C)cc(O)c(=O)c(O)c1O [Compound 196] | efficiently inhibited | > 100000 | efficiently inhibited | 2570 | 4.05 | 4.56 | 100 | 4.17 | 3.99 | EC50 (HBV): 6500 nM; log reduction at 1.5 µM (HSV-1; read-out: HSV-1 Log suppression 1.5 μM): 3.82; CC50 at 24 h [5]: 13000 nM |
